Measurements: ChEMBL document CHEMBL1128386, “Structure-activity relationships of milrinone analogues determined in vitro in a rabbit heart membrane Ca(2+)-ATPase model” (J Med Chem, 1995)

Species: Oryctolagus cuniculus
Assay: Activity against [Ca2+]-ATPase assay in rabbit myocardial membrane.
Format: cell membranes
Conditions: Myocardium

Structure (SMILES) | Activity
Cc1nc(O)c(Br)cc1-c1ccncc1 | 6.6 µM
Cc1cnccc1-c1cnc(O)c(N)c1 | 0.03 µM
Cc1cnccc1-c1cnc(O)c(C#N)c1 | 0.5 µM
Cc1[nH]c(=O)c(C#N)cc1-c1ccncc1 | 10.7 µM
Nc1cc(-c2ccncc2)c[nH]c1=O | 1.4 µM

Second part, the compound after the results:

Activity | Structure (SMILES)
6 µM | Cc1nc(O)c(N)cc1-c1ccncc1
3.3 µM | Cc1cnccc1-c1cc(C#N)c(O)nc1C
